This note sets out measurements from patent US8080657B2, “Compounds of reverse turn mimetics and the use thereof” (Choongwae Pharma Corporation, priority 2008, dated 2011).

Where two headings read alike, the source gives them in different places.

The test system of this assay is Wnt signaling. Kind of assay: TopFlash reporter gene bioassay in SW480 cells. Type of assay: cell-based. As to conditions: Homo sapiens, read-out: RGA, IC50 (μM) TopF.
[1] abbreviates: SW480, TopFlash reporter gene assay, inhibition of Wnt signaling.

For the compound `C=CCN1CC(=O)N2[C@@H](Cc3ccc(O)cc3)C(=O)N(Cc3ccccc3N)C[C@@H]2N1C(=O)NCc1ccccc1` [compound 78], under setting [1], the IC50 was 0.95 ± 0.15 µM.
Same read-out and setting: then `C=CCN1CC(=O)N2[C@@H](Cc3ccc(O)cc3)C(=O)N(Cc3cccc(OC)c3OCC3CC3)C[C@@H]2N1C(=O)NCc1ccccc1` [compound 79], with 0.95 ± 0.21 µM; and `C=CCN1CC(=O)N2[C@@H](Cc3ccc(O)cc3)C(=O)N(Cc3ccc(F)c4scnc34)C[C@@H]2N1C(=O)NCc1ccc(F)c(F)c1` [compound 80], with 0.96 ± 0.13 µM.
The same measure, in the same setting: then `C=CCN1CC(=O)N2[C@@H](Cc3ccc(O)cc3)C(=O)N(Cc3cccc(-c4ccccc4OC)n3)C[C@@H]2N1C(=O)NCc1ccccc1` [compound 81], with 0.97 ± 0.18 µM; and `C=CCN1CC(=O)N2[C@@H](Cc3ccc(O)cc3)C(=O)N(Cc3cccc(-c4cccc(N)c4)c3)C[C@@H]2N1C(=O)NCc1ccccc1` [compound 82], with 0.99 ± 0.14 µM; and `C=CCN1CC(=O)N2[C@@H](Cc3ccc(O)cc3)C(=O)N(Cc3csc4ccc(NC(C)=O)cc34)C[C@@H]2N1C(=O)NCc1ccccc1` [compound 85], with 1 ± 0.22 µM.
The same measure, in the same setting: then `C=CCN1CC(=O)N2[C@@H](Cc3ccc(O)cc3)C(=O)N(Cc3cccc4c(=O)ccoc34)C[C@@H]2N1C(=O)NCc1ccccc1` [compound 87], with 1.01 ± 0.24 µM.
Consider `C=CCN1CC(=O)N2[C@@H](Cc3ccc(O)cc3)C(=O)N(Cc3cccc(C(C)(C)C)c3OC)C[C@@H]2N1C(=O)NCc1ccccc1` [compound 89], for which the IC50 under setting [1] came out at 1.03 ± 0.11 µM.
Turning to `C=CCOc1c(CN2C[C@H]3N(C(=O)CN(CC=C)N3C(=O)NCc3ccccc3)[C@@H](Cc3ccc(O)cc3)C2=O)cccc1OC` [compound 90], for the setting “SW480”, the IC50 came out at 1.03 ± 0.16 µM.
As to `C=CCN1CC(=O)N2[C@@H](Cc3ccc(O)cc3)C(=O)N(Cc3cccc(C(=O)NCCOC)c3)C[C@@H]2N1C(=O)NCc1ccccc1` [compound 91], under setting [1], the IC50 turned out to be 1.04 ± 0.18 µM.
Regarding `C=CCN1CC(=O)N2[C@@H](Cc3ccc(OP(=O)(O)O)cc3)C(=O)N(Cc3cccc4ccnn34)C[C@@H]2N1C(=O)NCc1ccccc1` [compound 92], the IC50 (SW480) was found to be 1.04 ± 0.18 µM.
As to `C=CCN1CC(=O)N2[C@@H](Cc3ccc(O)cc3)C(=O)N(Cc3cccc4c3nc(C(F)(F)F)n4C)C[C@@H]2N1C(=O)NCc1ccccc1` [compound 93], the IC50 under setting [1] was determined as 1.07 ± 0.2 µM.
`C=CCN1CC(=O)N2[C@@H](Cc3ccc(OP(=O)(O)O)cc3)C(=O)N(Cc3cccc(N4CCCC4=O)c3)C[C@@H]2N1C(=O)NCc1ccccc1` [compound 94]: the IC50 (SW480) worked out at 1.09 ± 0.16 µM.
`C=CCN1CC(=O)N2[C@@H](Cc3ccc(O)cc3)C(=O)N(Cc3cccc(C4CC4)n3)C[C@@H]2N1C(=O)NCc1ccccc1` [compound 95]: the IC50 under setting [1] came to 1.1 ± 0.12 µM.
On the same count and under the same terms, the figure for `C=CCN1CC(=O)N2[C@@H](Cc3ccc(O)cc3)C(=O)N(Cc3ccccc3N3CCCC3)C[C@@H]2N1C(=O)NCc1ccccc1` [compound 96] is 1.11 ± 0.25 µM; for `C=CCN1CC(=O)N2[C@@H](Cc3ccc(O)cc3)C(=O)N(Cc3cccc(C#N)c3F)C[C@@H]2N1C(=O)NCc1ccccc1` [compound 97] it is 1.13 ± 0.05 µM.
Turning to `C=CCN1CC(=O)N2[C@@H](Cc3ccc(O)cc3)C(=O)N(Cc3cccc(-c4cccnc4OC)c3)C[C@@H]2N1C(=O)NCc1ccccc1` [compound 98], the IC50 under setting [1] was determined as 1.17 ± 0.15 µM.
In the case of `C=CCN1CC(=O)N2[C@@H](Cc3ccc(O)cc3)C(=O)N(Cc3cccc4c3ncn4C(=O)CNC(=O)OC(C)(C)C)C[C@@H]2N1C(=O)NCc1ccccc1` [compound 99], the IC50 under setting [1] was 1.17 ± 0.27 µM.
Consider `C=CCN1CC(=O)N2[C@@H](Cc3ccc(O)cc3)C(=O)N(Cc3csc4ccc(N)cc34)C[C@@H]2N1C(=O)NCc1ccccc1` [compound 100], for which the IC50 under setting [1] was found to be 1.21 ± 0.14 µM.
As for `C=CCN1CC(=O)N2[C@@H](Cc3ccc(O)cc3)C(=O)N(Cc3cccc(C(=O)NCC4CCCCC4)c3)C[C@@H]2N1C(=O)NCc1ccccc1` [compound 101], the IC50 under setting [1] was 1.24 ± 0.07 µM.
On to `C=CCN1CC(=O)N2[C@@H](Cc3ccc(O)cc3)C(=O)N(Cc3cccc(NC(C)=O)c3)C[C@@H]2N1C(=O)NCc1ccccc1` [compound 102], for which the IC50 under setting [1] was determined as 1.25 ± 0.21 µM.
Same read-out and setting: then `C=CCN1CC(=O)N2[C@@H](Cc3ccc(O)cc3)C(=O)N(Cc3ccc(F)c4scnc34)C[C@@H]2N1C(=O)NCc1ccc(C)cc1` [compound 103], with 1.26 ± 0.19 µM; and `C=CCN1CC(=O)N2[C@@H](Cc3ccc(O)cc3)C(=O)N(Cc3ccc(F)c4scnc34)C[C@@H]2N1C(=O)NCCc1cccs1` [compound 104], with 1.27 ± 0.1 µM; and `C=CCN1CC(=O)N2[C@@H](Cc3ccc(O)cc3)C(=O)N(Cc3cccc(OC)c3OS(=O)(=O)c3ccc(Cl)cc3)C[C@@H]2N1C(=O)NCc1ccccc1` [compound 105], with 1.27 ± 0.24 µM.
Consider `C=CCN1CC(=O)N2[C@@H](Cc3ccc(O)cc3)C(=O)N(Cc3cccc(C(=O)NCC4CCCO4)c3)C[C@@H]2N1C(=O)NCc1ccccc1` (some centres unmarked) [compound 106], for which the IC50 under setting [1] was 1.28 ± 0.1 µM.
Still for that read-out and setting: then `C=CCN1CC(=O)N2[C@@H](Cc3ccc(O)cc3)C(=O)N(Cc3ccc(F)c4scnc34)C[C@@H]2N1C(=O)NCc1cccs1` [compound 107], with 1.3 ± 0.2 µM.
On the same count and under the same terms, the figure for `C=CCN1CC(=O)N2[C@@H](Cc3ccc(O)cc3)C(=O)N(Cc3cccnc3C3CC3)C[C@@H]2N1C(=O)NCc1ccccc1` [compound 108] is 1.31 ± 0.33 µM.
As to `C=CCN1CC(=O)N2[C@@H](Cc3ccc(O)cc3)C(=O)N(Cc3cccc(N(C)C(=O)OC)c3)C[C@@H]2N1C(=O)NCc1ccccc1` [compound 109], the IC50 under setting [1] came out at 1.35 ± 0.15 µM.
Still for that read-out and setting: then `C=CCN1CC(=O)N2[C@@H](Cc3ccc(O)cc3)C(=O)N(Cc3csc4cc(NC=O)ccc34)C[C@@H]2N1C(=O)NCc1ccccc1` [compound 111], with 1.41 ± 0.21 µM.
`C=CCN1CC(=O)N2[C@@H](Cc3ccc(OP(=O)(O)O)cc3)C(=O)N(Cc3ccccc3N3CCCC3)C[C@@H]2N1C(=O)NCc1ccccc1` [compound 112]: the IC50 (SW480) was found to be 1.41 ± 0.21 µM.
Consider `C=CCN1CC(=O)N2[C@@H](Cc3ccc(O)cc3)C(=O)N(Cc3cccc(N(C)C=O)c3)C[C@@H]2N1C(=O)NCc1ccccc1` [compound 113], for which, under setting [1], the IC50 came out at 1.41 ± 0.38 µM.
The same measure, in the same setting: the figure for `C=CCN1CC(=O)N2[C@@H](Cc3ccc(O)cc3)C(=O)N(Cc3cccc(C(=O)N4CCCCC4)c3)C[C@@H]2N1C(=O)NCc1ccccc1` [compound 114] is 1.42 ± 0.51 µM.
On the same count and under the same terms, the figure for `C=CCN1CC(=O)N2[C@@H](Cc3ccc(O)cc3)C(=O)N(Cc3cccc(-c4ccccc4O)c3)C[C@@H]2N1C(=O)NCc1ccccc1` [compound 115] is 1.43 ± 0.27 µM; for `C=CCN1CC(=O)N2C(CN(Cc3cccc(C#CC(C)(C)C)n3)C(=O)[C@@H]2Cc2ccc(O)cc2)N1C(=O)NCc1ccccc1` (some centres unmarked) [compound 116] it is 1.43 ± 0.26 µM.
On the same count and under the same terms, then `C=CCN1CC(=O)N2[C@@H](Cc3ccc(O)cc3)C(=O)N(Cc3ccc(OC)c(Cl)c3)C[C@@H]2N1C(=O)NCc1ccccc1` [compound 117], with 1.44 ± 0.22 µM; and `C=CCN1CC(=O)N2[C@@H](Cc3ccc(O)cc3)C(=O)N(Cc3cccc(C(=O)O)c3)C[C@@H]2N1C(=O)NCc1ccc(Cl)cc1Cl` [compound 119], with 1.51 ± 0.16 µM.
Take `C=CCN1CC(=O)N2[C@@H](Cc3ccc(O)cc3)C(=O)N(Cc3cccc(-c4ccc(OC)nc4)c3)C[C@@H]2N1C(=O)NCc1ccccc1` [compound 121]: under setting [1], the IC50 is 1.53 ± 0.17 µM.
The same measure, in the same setting: then `C=CCN1CC(=O)N2[C@@H](Cc3ccc(O)cc3)C(=O)N(Cc3cccc(Cl)c3N(C)C)C[C@@H]2N1C(=O)NCc1ccccc1` [compound 122], with 1.54 ± 0.07 µM.

Usually IC50 stands for the point on the concentration scale where inhibition reaches its midpoint.
